For series [1], the target named is T1, Long-chain-fatty-acid--AMP ligase FadD28 (Mycobacterium tuberculosis, UniProt P9WQ59).
T1 sequence (P9WQ59 whole entry): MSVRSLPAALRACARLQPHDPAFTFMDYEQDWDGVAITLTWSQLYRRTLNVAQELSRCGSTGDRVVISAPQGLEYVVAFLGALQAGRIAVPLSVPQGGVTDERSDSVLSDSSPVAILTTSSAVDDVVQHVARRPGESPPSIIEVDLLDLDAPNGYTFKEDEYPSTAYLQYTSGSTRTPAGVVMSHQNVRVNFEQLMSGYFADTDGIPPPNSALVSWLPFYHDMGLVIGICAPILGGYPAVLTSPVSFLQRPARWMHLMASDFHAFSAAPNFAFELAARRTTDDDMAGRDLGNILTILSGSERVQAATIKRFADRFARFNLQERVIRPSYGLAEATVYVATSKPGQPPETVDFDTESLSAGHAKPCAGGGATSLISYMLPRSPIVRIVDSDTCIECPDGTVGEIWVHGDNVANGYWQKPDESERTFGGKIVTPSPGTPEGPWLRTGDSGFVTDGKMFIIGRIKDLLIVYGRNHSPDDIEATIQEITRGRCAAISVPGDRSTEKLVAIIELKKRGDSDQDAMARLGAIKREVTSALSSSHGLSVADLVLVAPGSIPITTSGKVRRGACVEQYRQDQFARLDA
The series can be described thus: Fluorescence polarization aasay to screen for inhibitors that compete for the binding of FadD28 to a bisubstrate Measured in Biochemical System Using Plate Reader - 2147-01_Inhibitor_Dose_CherryPick_Activity. Type of series: functional, Mycobacterium tuberculosis H37Rv. In general terms: Fluorescence polarisation rises when a labelled molecule tumbles more slowly, as on binding a larger partner.

Series [2] concerns the target Glucose-6-phosphate 1-dehydrogenase (Homo sapiens, UniProt P11413). The series can be described thus: human G6PD enzyme inhibitors, dose response, selectivity assay for P. falciparum G6PD inhibitor project, biochemical, fluorescence (AID 504792). Format: functional.
In series [3] the target is T2, Polyadenylate-binding protein 1 (Homo sapiens, UniProt P11940). The series can be described thus: PABP1 MLLE–PAM2 interaction inhibitors, dose response, miRNA deadenylation inhibitor project, biochemical, fluorescence polarization, Cy5-PAM2 peptide, secondary (AID 602260). Format: functional. To be noted: read-out: IC50_Mean.
The target in series [4] is T2, Polyadenylate-binding protein 1. Briefly: PABP1 MLLE–PAM2 binding inhibitor potency, dose response, biochemical, fluorescence polarization, FITC-PAM2 peptide (AID 602259). Type of series: functional. The note with it: read-out: IC50_Mean.
Series [5] deals with T3, Calpain-2 catalytic subunit (Sus scrofa, UniProt P43367).
T3 sequence (P43367 whole entry): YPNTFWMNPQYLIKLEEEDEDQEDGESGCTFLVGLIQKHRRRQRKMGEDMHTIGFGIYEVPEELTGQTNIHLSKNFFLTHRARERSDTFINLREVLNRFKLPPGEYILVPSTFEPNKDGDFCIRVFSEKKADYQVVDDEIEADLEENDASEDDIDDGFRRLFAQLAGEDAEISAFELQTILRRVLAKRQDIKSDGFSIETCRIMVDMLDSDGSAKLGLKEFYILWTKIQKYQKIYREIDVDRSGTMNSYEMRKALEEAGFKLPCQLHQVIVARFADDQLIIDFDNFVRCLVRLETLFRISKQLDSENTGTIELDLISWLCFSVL
The series can be described thus: pig calpain II inhibitor potency, dose response, biochemical, fluorogenic peptide substrate (AID 1420). Type of series: functional.

For series [6], the target named is Cytochrome P450 2D6 (Homo sapiens, UniProt P10635).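 Also: CYP2D6 member of a cytochrome P450 panel assay.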
Series [7] concerns the target T4, Cytochrome P450 1A2 (Homo sapiens, UniProt P05177).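 Also: PubChem cytochrome P450 panel assay, CYP1A2 panel member.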
T4 sequence (P05177 whole entry): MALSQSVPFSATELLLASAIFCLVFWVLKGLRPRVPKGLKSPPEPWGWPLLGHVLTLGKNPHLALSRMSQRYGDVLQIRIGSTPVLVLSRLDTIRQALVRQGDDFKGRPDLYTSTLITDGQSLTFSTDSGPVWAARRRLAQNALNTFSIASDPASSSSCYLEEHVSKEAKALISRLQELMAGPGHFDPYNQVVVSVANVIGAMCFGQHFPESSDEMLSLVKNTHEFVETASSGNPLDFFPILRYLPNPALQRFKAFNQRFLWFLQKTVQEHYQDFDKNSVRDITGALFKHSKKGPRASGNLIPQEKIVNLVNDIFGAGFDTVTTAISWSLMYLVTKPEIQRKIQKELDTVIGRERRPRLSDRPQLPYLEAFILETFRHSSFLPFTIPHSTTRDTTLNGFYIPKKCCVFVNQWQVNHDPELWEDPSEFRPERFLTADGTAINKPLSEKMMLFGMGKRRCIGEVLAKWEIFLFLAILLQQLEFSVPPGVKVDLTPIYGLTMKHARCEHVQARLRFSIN

The target in series [8] is Cytochrome P450 3A4 (Homo sapiens, UniProt P08684).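 Also: CYP3A4 tested as one member of a cytochrome P450 panel screen.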
Series [9] addresses Cytochrome P450 2C9 (Homo sapiens, UniProt P11712).
Series [10] is described as follows: cells. Type of series: functional, cell-based.
Series [11] can be described thus: cells. Type of series: functional, cell-based. This is another data set of the same source.
For series [12], the target named is Luciferin 4-monooxygenase (Photinus pyralis, UniProt P08659). Briefly: firefly luciferase enzyme inhibitors, dose response, biochemical, luminescence (AID 1891).
Series [13] in a line: Luminescence Cell-Based Dose Confirmation HTS to Identify Inhibitors of Platelet Dense Granule Release. [Related pubchem assays: 1663 (Primary HTS), 1678 (Summary of Project)]. Format: functional.
Series [14] in a line: A549 cell cytotoxicity, dose response, cytotoxicity control, plate reader, cherry-pick, antagonist series (AID 743412). Format: functional, cell-based.
The nature of series [15]: LGR2 antagonists, dose response, cell-based, HEK293, CRE-luciferase reporter, cherry pick, set 2 (AID 743343).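 Also: transfected cells were stimulated with diluted bursicon conditioned medium after compound addition.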 Type of series: functional. In general terms: In a reporter assay the amount or activity of a reporter protein is the signal.
Series [16] in a line: MC4R antagonists, dose response, counter-screen for LGR2 antagonist project, cell-based, plate reader, cherry pick (AID 743444).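 Also: transfected HEK 293 cells stimulated with alpha-MSH peptide; potency of inhibitors of the alpha-MSH evoked signal.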 Type of series: functional.
A short description of series [17]: HEK293 cell cytotoxicity, dose response, cytotoxicity control, plate reader, cherry-picked samples (AID 743446). Format: functional, cell-based.
A short description of series [18]: inhibitors of intracellular T. cruzi replication, confirmation, NIH3T3 host cells, beta-gal luminescence (AID 2044).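 Also: intracellular parasites grown in NIH/3T3 mouse fibroblasts as host cells; luminescent beta-galactosidase reporter signal from transgenic T. cruzi replicating inside host cells; inhibitors lower the luminescence signal.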 Format: functional, cell-based.
Series [19] is described as follows: cytotoxicity toward NIH3T3 fibroblasts, dose response, counter-screen, cell-based, ATP luminescence, mouse fibroblasts (AID 2010).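 Also: cells exposed to compound for about 90 hours before reading.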 Format: functional. A general note: The purpose of a counterscreen is to sort out artefacts and off-target activity.
The nature of series [20]: THP-1 cell cytotoxicity, dose response, cytotoxicity control for non-replicating M. tuberculosis project (AID 489025). Format: functional.
Series [21] in a line: cells. Format: functional.
Series [22] deals with INS1. The series can be described thus: beta cell apoptosis inhibitors, cytokine rescue, dose response, luminescence, retest (AID 449756).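 Also: cell death triggered by IL-1 beta plus TNF-alpha plus IFN-gamma mixture; protective hits raise ATP signal compared with cytokine alone wells.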 Format: functional, cell-based. The note with it: Rattus norvegicus.
Series [23] can be described thus: NIH-3T3 fibroblast cytotoxicity, dose response, cytotoxicity control, cell-based, fluorescence, Alamar Blue, secondary assay (AID 2327).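 Also: NIH-3T3 mouse fibroblasts cultured with fluconazole at 8 µg/mL.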 Type of series: functional.
Series [24] can be described thus: C. albicans growth with fluconazole, confirmation, fluorescence, retest (AID 2467). Format: functional, cell-based.
Series [25] is described as follows: inhibitors of PGC1a acetylation in cells, dose response, cell-based, cherry-picked samples (AID 720514).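 Also: potency may reflect raised or lowered acetylation signal.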 Format: functional.
Series [26] in a line: inhibitors of firefly luciferase expression or activity, dose response, H4 neuroglioma cells, luminescence (AID 1990). Type of series: functional, cell-based.
Series [27] is described as follows: Luminescence Cell-Based Dose Response HTS to Identify Inhibitors of 5'UTR Stem-Loop Driven Prion Protein mRNA Translation in H4 Neuroglioblastoma Cells. [Related pubchem assays: 1827 (Project Summary), 1813 (Primary HTS)]. Format: functional.
Series [28] can be described thus: inhibitors of SNCA 5'UTR-driven reporter translation, confirmation, H4 neuroglioma cells, luminescence (AID 1988). Type of series: functional, cell-based.

Active and inactive are the calls of the source. Where only a bound is given, the exact number is not on record here.

Experimental findings from ChEMBL document CHEMBL1201862, “PubChem BioAssay data set” (2004) are described below.

Sequence of Glucose-6-phosphate 1-dehydrogenase (P11413 whole entry): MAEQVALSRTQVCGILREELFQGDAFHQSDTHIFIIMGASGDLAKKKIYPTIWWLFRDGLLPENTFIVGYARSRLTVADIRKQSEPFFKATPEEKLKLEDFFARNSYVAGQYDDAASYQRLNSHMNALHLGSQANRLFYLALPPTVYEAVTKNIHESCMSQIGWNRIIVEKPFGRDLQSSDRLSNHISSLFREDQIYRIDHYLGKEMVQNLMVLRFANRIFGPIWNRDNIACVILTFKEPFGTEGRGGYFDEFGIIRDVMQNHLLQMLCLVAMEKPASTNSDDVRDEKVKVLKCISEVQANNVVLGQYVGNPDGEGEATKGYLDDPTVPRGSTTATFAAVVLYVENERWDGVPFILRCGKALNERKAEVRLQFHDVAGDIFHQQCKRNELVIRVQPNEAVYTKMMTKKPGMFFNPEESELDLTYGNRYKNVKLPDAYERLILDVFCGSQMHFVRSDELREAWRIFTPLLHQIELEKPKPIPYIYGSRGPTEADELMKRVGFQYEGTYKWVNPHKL
T2 sequence (P11940 whole entry): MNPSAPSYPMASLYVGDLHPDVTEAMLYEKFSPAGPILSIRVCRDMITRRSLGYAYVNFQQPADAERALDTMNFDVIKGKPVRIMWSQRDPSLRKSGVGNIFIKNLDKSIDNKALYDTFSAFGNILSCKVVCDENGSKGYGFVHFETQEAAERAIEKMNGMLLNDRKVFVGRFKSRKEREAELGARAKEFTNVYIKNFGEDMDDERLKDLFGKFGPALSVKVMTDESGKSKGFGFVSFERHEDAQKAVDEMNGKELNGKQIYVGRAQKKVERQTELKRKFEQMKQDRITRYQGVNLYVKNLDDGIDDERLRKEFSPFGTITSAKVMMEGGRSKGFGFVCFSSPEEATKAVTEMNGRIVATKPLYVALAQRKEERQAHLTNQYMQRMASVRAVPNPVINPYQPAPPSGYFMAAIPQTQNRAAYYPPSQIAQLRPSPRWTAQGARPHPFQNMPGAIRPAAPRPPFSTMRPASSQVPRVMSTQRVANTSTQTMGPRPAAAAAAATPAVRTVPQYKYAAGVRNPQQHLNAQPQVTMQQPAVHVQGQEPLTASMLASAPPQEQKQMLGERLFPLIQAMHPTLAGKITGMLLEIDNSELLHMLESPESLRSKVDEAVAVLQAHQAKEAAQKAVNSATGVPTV
Sequence of Cytochrome P450 3A4 (P08684 whole entry): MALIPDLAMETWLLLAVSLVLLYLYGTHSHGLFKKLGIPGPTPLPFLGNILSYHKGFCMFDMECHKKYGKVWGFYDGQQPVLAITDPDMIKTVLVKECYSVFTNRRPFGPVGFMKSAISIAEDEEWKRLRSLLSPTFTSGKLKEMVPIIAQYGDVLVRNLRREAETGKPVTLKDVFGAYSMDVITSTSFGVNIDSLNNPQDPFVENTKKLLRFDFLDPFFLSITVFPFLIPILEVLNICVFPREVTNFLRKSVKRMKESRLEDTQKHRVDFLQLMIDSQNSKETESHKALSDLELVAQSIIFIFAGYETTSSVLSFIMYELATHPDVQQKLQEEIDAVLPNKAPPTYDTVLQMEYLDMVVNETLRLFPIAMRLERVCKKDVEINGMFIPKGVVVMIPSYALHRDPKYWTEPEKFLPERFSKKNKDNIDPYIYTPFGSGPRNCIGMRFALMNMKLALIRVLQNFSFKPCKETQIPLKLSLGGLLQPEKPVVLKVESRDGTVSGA
Sequence of Luciferin 4-monooxygenase (P08659 whole entry): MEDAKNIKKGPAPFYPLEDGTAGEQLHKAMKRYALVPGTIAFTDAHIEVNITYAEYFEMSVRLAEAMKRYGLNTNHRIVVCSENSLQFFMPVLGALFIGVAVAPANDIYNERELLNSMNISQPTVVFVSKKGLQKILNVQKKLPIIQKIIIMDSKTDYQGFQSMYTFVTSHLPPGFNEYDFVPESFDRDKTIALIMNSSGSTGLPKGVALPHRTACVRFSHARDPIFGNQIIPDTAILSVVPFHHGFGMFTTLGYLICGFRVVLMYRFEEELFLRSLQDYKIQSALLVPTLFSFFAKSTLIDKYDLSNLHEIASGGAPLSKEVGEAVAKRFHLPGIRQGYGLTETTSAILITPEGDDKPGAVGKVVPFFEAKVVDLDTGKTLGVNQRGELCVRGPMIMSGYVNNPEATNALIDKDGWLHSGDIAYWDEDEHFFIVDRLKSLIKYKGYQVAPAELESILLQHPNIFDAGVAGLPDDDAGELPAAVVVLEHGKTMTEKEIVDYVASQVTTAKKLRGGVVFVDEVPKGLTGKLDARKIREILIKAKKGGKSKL
Sequence of Cytochrome P450 2C9 (P11712 whole entry): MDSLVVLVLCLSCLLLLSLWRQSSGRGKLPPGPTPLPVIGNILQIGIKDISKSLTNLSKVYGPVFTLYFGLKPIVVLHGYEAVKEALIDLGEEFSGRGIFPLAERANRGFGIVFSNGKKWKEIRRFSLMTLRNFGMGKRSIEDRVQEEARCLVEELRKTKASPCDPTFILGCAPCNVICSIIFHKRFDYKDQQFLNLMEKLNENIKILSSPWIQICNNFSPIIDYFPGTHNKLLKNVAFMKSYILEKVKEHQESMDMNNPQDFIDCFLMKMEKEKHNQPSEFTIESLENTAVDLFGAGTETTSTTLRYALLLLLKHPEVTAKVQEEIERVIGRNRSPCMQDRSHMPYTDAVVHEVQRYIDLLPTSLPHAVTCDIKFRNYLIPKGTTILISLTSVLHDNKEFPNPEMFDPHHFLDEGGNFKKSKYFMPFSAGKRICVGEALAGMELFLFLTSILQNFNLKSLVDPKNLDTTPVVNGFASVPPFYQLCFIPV
Sequence of Cytochrome P450 2D6 (P10635 whole entry): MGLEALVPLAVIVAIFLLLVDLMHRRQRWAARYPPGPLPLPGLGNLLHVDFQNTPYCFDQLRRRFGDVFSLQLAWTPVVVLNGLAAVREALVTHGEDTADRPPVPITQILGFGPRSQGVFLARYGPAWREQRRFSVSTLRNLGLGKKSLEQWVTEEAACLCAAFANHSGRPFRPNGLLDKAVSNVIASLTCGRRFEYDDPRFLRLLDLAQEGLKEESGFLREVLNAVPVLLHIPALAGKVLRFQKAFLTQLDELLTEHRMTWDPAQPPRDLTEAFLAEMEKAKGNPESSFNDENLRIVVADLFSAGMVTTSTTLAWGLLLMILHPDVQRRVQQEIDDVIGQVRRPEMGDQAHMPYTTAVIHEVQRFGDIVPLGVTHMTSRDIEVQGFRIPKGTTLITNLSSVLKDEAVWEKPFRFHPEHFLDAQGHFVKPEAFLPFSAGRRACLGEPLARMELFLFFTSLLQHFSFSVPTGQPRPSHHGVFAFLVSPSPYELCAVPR

For the molecule `CCN(CC)S(=O)(=O)c1cc(C(=O)OCC(=O)Nc2cccc(Br)c2)ccc1F`, the concentration at half-maximal activity (AC50) in series [1] is 6.81 µM (active).
On to `CC1(OC(=O)C2CCCC2)C(=O)C=C2C=C(c3ccsc3)N(Cc3ccc4c(c3)OCO4)C=C2C1=O` (stereo not drawn), for which the IC50 in [2] is > 80 µM (inactive).
For `Cc1ccc(N=C(S)C2=C(O)c3sccc3N(C)S2(=O)=O)cc1`, the IC50 in series [3] and in [4] was > 66 µM (inactive) throughout. For the same molecule, the AC50 in series [1] was > 100 µM (inactive).
Take `Cc1cccc(-n2nnc(C(=O)NC3CCCc4ccccc43)c2N)c1` (stereo not drawn): the IC50 in [5] was 7.05 µM (not active). Further, the AC50 was 7.94 µM (inconclusive) in series [6], 15.8 µM (inconclusive) in series [7], 1.12 µM (inconclusive) in series [8] and “inconclusive” in series [9].
With `Cc1cccc(N2CCN(c3ccc(N4C(=O)CCCC4=O)cc3[N+](=O)[O-])CC2C)c1` (stereo not drawn), the EC50 in [10] and in series [11] was > 350 µM (not active) each time.
Regarding `CCOC(=O)c1ccc(-n2c(N)c(C(=O)NCC3CCCO3)sc2=S)cc1` (stereo not drawn), the IC50 in series [2] was > 80 µM (inactive).
As for `COc1ccc(-c2cc(-c3ccccc3)no2)cc1`, the results for the EC50 in series [12] and in series [13] were 0.895 µM (active) and 10.3 µM (active), respectively. Moreover, the AC50 in series [14] was 45.1 µM (active); in series [15] it was 5.01 µM (active); in series [16], 3.84 µM (active); in series [17], > 52 µM (inactive).
As for `O=C(Nc1ccc(S(=O)(=O)N2CCOCC2)cc1)c1ccc([N+](=O)[O-])s1`, the EC50 is 0.394 µM (active) in [18] and 42.8 µM (active) in series [19]. Also, the CC50 in series [20] was 23.2 µM (active). Further, in series [21], the IC50 is 0.7 µM (active). Also, the AC50 in series [22] was 7.03 µM (active).
`O=C(O)CCC(=O)Nc1ccc(C(=O)OCC(=O)c2ccc(Cl)cc2Cl)cc1`: the AC50 in series [1] was > 100 µM (inactive).
Turning to `COc1ccccc1NC(c1cccnc1)c1ccc2cccnc2c1O` (stereo not drawn), the 50% effective concentration (EC50) in series [23] was > 160 µM (inconclusive); in [10], 116 µM (active); in series [24] it was > 38 µM (not active); in series [11] it was > 350 µM (not active).
`O=C(CCC(=O)OCC(=O)c1ccc([N+](=O)[O-])cc1)Nc1ccccc1Cl`: in series [2], the IC50 is > 80 µM (inactive).
Consider `COc1ccc(C#Cc2ccc([C@H]3[C@@H](CO)N4CCCCN(C(=O)Nc5ccc(F)cc5)C[C@H]34)cc2)cc1`, for which, in series [25], the AC50 is 13.9 µM (active).
For the molecule `Cc1cccc(-c2ccc([C@H]3[C@@H](CO)N4CCCCN(C(=O)c5cccnc5)C[C@@H]34)cc2)c1`, the AC50 in series [14] is 38.4 µM (active); in [15] it was 20.8 µM (active); in [16] it was 23.5 µM (active); in series [17] it was > 52 µM (inactive).
Take `C=CCc1ccccc1OCC(=O)N/N=C/c1ccccc1OCC`: the IC50 in [2] is > 80 µM (inactive).
Regarding `O=C(N/N=C(\Cc1ncc[nH]1)c1ccccc1)c1ccccc1`, the EC50 was 12.7 µM (active) in series [26]; > 350 µM (not active) in [10]; > 120 µM (not active) in series [27]; > 120 µM (not active) in series [28]; > 350 µM (not active) in series [11].
As to `C/C(=N\NC(=O)Cc1ccc(Br)cc1)c1cccnc1`, the EC50 in series [10] was > 350 µM (not active); in [11] it was 36.3 µM (active).

What is called AC50 is the concentration at which the activity in the assay is half-maximal. Broadly, the EC50 is the midpoint of the concentration-response curve. The term CC50 denotes the concentration at which the toxic effect on the cells reaches its halfway point.
